Earlier results on one molecule are cited in US10976310B2, “Ligand identification by co-fractionation” (MAX-PLANCK-GESELLSCHAFT ZUR FÖRDERUNG DER WISSENSCHAFTEN …, priority 2016, dated 2021).

The structures appear in SMILES notation.

The data set has as its target T1, PYR1 receptor (Arabidopsis thaliana, UniProt O49686).
T1 sequence (O49686 1-191): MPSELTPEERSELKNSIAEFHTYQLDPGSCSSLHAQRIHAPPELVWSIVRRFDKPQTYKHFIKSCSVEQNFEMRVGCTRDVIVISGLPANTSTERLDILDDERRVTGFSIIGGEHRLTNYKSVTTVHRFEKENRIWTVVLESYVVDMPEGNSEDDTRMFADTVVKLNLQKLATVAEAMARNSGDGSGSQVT
To be noted: Dupeux et al. (2011); read-out: Kd of binding to PYR1; cited from earlier work.

For the molecule `CC1=CC(=O)CC(C)(C)[C@@]1(O)/C=C/C(C)=C\C(=O)O` [abscisic acid], the Kd (usually the free concentration of one partner at which half of the binding sites on the other are occupied at equilibrium, for simple one-to-one binding) was 97 µM.
